Measurements as given in patent US20090143279A1 (priority 2007, published 2009).
Read-outs that look alike come from different tables or passages of the source.

Columns and labels:
[1] = test system: nuOXPHOS transcripts; assay type: cell-based, mouse
[2] = test system: C2C12 myotubes
[3] = test system: cytochrome c; assay type: cell-based, mouse
[4] = test system: mitochondrial membrane potential; assay type: cell-based, mouse
[5] = test system: OXPHOS gene expression; assay type: cell-based, mouse
[6] = test system: cellular dehydrogenase activity
[7] = test system: mtOXPHOS transcripts; assay type: cell-based, mouse
[8] = test system: reactive oxygen species; assay type: cell-based, mouse
[9] = composite Z-score vs DMSO, Conc 20 μM
[10] = 20 μM, composite Z-score vs DMSO
[11] = composite Z-score vs mock-treated (DMSO) wells, Conc 20 μM
[12] = Conc 20 μM, normalized score vs mock-treated (DMSO) wells
[13] = normalized composite Z-score vs mock-treated (DMSO) wells, Conc 20 μM

## C=C[C@H]1C[N@@]2CC[C@H]1C[C@@H]2[C@@H](O)c1ccnc2ccc(OC)cc12 [quinidine]
[1]; [9]
  nucOX: 0.956
[2]; [9]
  Viability: 0.916
[3]; [9]
  cyt c: 1.286
[4]; [9]
  ΔΨm: 1.187
[5]; [9]
  GE-HTS: 0.849
[6]; [9]
  MTT: −0.233
[7]; [9]
  mitoOX: 0.501
[8]; [9]
  ROS: 1.326

## C=C[C@H]1CN2CC[C@H]1C[C@H]2[C@H](OC(=O)OCC)c1ccnc2ccc(OC)cc12 [quinine ethyl carbonate]
[1]; [10]
  nucOX: −1.003
[2]; [10]
  Viability: −0.167
[3]; [10]
  cyt c: 0.822
[4]; [10]
  ΔΨm: −0.661
[5]; [10]
  GE-HTS: −1.190
[6]; [10]
  MTT: −0.071
[7]; [10]
  mitoOX: −1.297
[8]; [10]
  ROS: 0.401

## O=C(O)c1cccnc1C(=O)O [quinolinic acid]
[1]; [10]
  nucOX: −0.575
[2]; [10]
  Viability: −0.516
[3]; [10]
  cyt c: −0.222
[4]; [10]
  ΔΨm: −1.023
[5]; [10]
  GE-HTS: −0.586
[6]; [10]
  MTT: −1.118
[7]; [10]
  mitoOX: −0.519
[8]; [10]
  ROS: 0.849

## COc1ccc(/C=C/c2cc(O)cc(O)c2)cc1 [resveratrol 4′-methyl ether]
[1]; [11]
  nucOX: −0.063
[2]; [11]
  Viability: −0.225
[3]; [11]
  cyt c: 0.142
[4]; [11]
  ΔΨm: −0.389
[5]; [11]
  GE-HTS: −0.005
[6]; [11]
  MTT: −1.056
[7]; [11]
  mitoOX: 0.065
[8]; [11]
  ROS: 0.225

## COc1ccc(-c2coc3c(O)c(OC)ccc3c2=O)cc1 [retusin 7-methyl ether]
[1]; [9]
  nucOX: 0.765
[2]; [9]
  Viability: −0.245
[3]; [9]
  cyt c: 0.412
[4]; [9]
  ΔΨm: −0.603
[5]; [9]
  GE-HTS: 0.788
[6]; [9]
  MTT: −0.627
[7]; [9]
  mitoOX: 0.631
[8]; [9]
  ROS: 0.088

## COc1ccc(-c2coc3c(OC)c(OC)ccc3c2=O)cc1 [retusin dimethyl ether]
[1]
  nucOX (composite Z-score): −0.033
[2]
  Viability (composite Z-score): 0.317
[3]
  cyt c (composite Z-score): −0.199
[4]
  ΔΨm (composite Z-score): 0.378
[5]
  GE-HTS (composite Z-score): −0.135
[6]
  MTT (composite Z-score): −1.263
[7]
  mitoOX (composite Z-score): −0.331
[8]
  ROS (composite Z-score): 0.069

## COC1=C(O)C(=O)c2c(cc3oc(C(C)=O)c(O)c3c2O)C1=O [rhodocladonic acid]
[1]; [9]
  nucOX: 0.393
[2]; [9]
  Viability: −0.416
[3]; [9]
  cyt c: 1.150
[4]; [9]
  ΔΨm: 0.068
[5]; [9]
  GE-HTS: 0.294
[6]; [9]
  MTT: −1.057
[7]; [9]
  mitoOX: 0.072
[8]; [9]
  ROS: 0.733

## Cc1c(O)c(C(=O)CC(C)C)c2oc3c(C(=O)CC(C)C)c(O)c(C)c(O)c3c2c1O [rhodomyrtoxin]
[1]; [12]
  nucOX (composite Z-score): 0.412
[2]; [12]
  Viability (composite Z-score): −0.636
[3]; [12]
  cyt c (composite Z-score): −1.200
[4]; [12]
  ΔΨm (composite Z-score): 2.834
[5]; [12]
  GE-HTS (composite Z-score): 0.357
[6]; [12]
  MTT (composite Z-score): 2.413
[7]; [12]
  mitoOX (composite Z-score): 0.206
[8]; [12]
  ROS (composite Z-score): 0.397

## C[C@@H]1O[C@@H](O[C@H]2[C@H](Oc3cc(O)c4c(=O)cc(-c5ccc(O)cc5)oc4c3)O[C@H](CO)[C@@H](O)[C@@H]2O)[C@H](O)[C@H](O)[C@H]1O [rhoifolin]
[1]; [13]
  nucOX: −0.774
[2]; [13]
  Viability: 0.089
[3]; [13]
  cyt c: 0.515
[4]; [13]
  ΔΨm: −0.213
[5]; [13]
  GE-HTS: −0.838
[6]; [13]
  MTT: −0.683
[7]; [13]
  mitoOX: −0.768
[8]; [13]
  ROS: 0.471

## C1COC(NC(C2CC2)C2CC2)=N1 [rilmenidine]
[1]
  nucOX: 0.319
[2]
  Viability: 0.245
[3]
  cyt c: −0.042
[4]
  ΔΨm: −0.589
[5]
  GE-HTS: 0.123
[6]
  MTT: 0.082
[7]
  mitoOX: −0.313
[8]
  ROS: 0.340

## COc1ccc(-c2c(OC)c3c(OC)c4c(cc3oc2=O)OC(C)(C)C=C4)cc1 [robustic acid methyl ether, reference compound]
[1]; [12]
  nucOX (composite Z-score): 0.444
[2]; [12]
  Viability (composite Z-score): 0.497
[3]; [12]
  cyt c (composite Z-score): 0.679
[4]; [12]
  ΔΨm (composite Z-score): 0.692
[5]; [12]
  GE-HTS (composite Z-score): 0.230
[6]; [12]
  MTT (composite Z-score): 0.474
[7]; [12]
  mitoOX (composite Z-score): −0.223
[8]; [12]
  ROS (composite Z-score): 1.431

## COc1ccc(-c2c(O)c3c(OC)c4c(cc3oc2=O)OC(C)(C)C=C4)cc1 [robustic acid, reference compound]
[1]; [12]
  nucOX (composite Z-score): −0.973
[2]; [12]
  Viability (composite Z-score): −1.213
[3]; [12]
  cyt c (composite Z-score): −0.459
[4]; [12]
  ΔΨm (composite Z-score): −1.086
[5]; [12]
  GE-HTS (composite Z-score): −0.930
[6]; [12]
  MTT (composite Z-score): −1.831
[7]; [12]
  mitoOX (composite Z-score): −0.587
[8]; [12]
  ROS (composite Z-score): −0.119
